Drawing on ChEMBL document CHEMBL1799986, “In vitro inhibition of α-carbonic anhydrase isozymes by some phenolic compounds” (Bioorg Med Chem Lett, 2011), this text covers Ki for twelve compounds.

The target of assay [1] is T1, Carbonic anhydrase (Dicentrarchus labrax, UniProt Q2PCB5).
T1 sequence (Q2PCB5 whole entry): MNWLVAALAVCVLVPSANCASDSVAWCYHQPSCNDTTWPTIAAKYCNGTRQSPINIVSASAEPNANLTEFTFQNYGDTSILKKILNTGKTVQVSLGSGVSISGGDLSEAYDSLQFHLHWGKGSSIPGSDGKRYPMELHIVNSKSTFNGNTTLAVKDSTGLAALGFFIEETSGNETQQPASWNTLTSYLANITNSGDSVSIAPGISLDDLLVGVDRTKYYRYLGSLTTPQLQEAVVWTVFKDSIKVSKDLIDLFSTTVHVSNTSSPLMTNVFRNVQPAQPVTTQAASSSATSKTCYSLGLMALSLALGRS
Nature of the assay: Inhibition of Dicentrarchus labrax CA using 4-nitrophenylacetate substrate by esterase assay.

For assay [2], the target named is Carbonic anhydrase 6 (Homo sapiens, UniProt P23280). Nature of the assay: Inhibition of human CA6 using 4-nitrophenylacetate substrate by esterase assay.
Sequence of Carbonic anhydrase 6 (P23280 whole entry): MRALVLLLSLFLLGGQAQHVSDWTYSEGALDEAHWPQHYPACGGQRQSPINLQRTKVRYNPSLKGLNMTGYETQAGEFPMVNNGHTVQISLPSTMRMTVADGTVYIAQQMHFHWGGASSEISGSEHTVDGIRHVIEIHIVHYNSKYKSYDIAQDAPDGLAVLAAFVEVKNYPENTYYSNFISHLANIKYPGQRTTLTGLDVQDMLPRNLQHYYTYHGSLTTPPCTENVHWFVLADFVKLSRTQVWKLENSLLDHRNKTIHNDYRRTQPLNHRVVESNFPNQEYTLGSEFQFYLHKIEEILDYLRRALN
Assay [3] concerns the target Carbonic anhydrase 1 (Homo sapiens, UniProt P00915). Description: Inhibition of human CA1 using 4-nitrophenylacetate substrate by esterase assay.
In assay [4] the target is Carbonic anhydrase 2 (Homo sapiens, UniProt P00918). Description: Inhibition of human CA2 using 4-nitrophenylacetate substrate by esterase assay.

Sequence of Carbonic anhydrase 1 (P00915 whole entry): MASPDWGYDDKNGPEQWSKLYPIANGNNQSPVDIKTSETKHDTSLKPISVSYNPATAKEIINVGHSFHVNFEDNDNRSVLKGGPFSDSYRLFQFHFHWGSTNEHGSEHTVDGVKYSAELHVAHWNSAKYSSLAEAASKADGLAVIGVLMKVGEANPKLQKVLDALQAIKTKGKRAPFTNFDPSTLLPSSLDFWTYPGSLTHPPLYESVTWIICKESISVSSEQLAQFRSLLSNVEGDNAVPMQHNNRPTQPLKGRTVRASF

In assay [1], `Oc1ccccc1` [PHENOL] displayed a Ki of 13.7 µM.
As to `O=C(O)c1ccccc1O` [SALICYLIC ACID], the affinity in assay [1] corresponds to a Ki of 324 µM.
Consider `O=C(O)c1cc(O)cc(O)c1` [3,5-DIHYDROXYBENZOIC ACID], for which, in assay [1], the Ki is 2.13 µM.
In assay [1], `O=C(O)c1cc(O)c(O)c(O)c1` [GALLIC ACID] displayed a Ki of 4.13 µM. Compared with the last compound, the Ki is about 1.9-fold higher.
In the case of `O=C(O)c1cccc(O)c1` [3-HYDROXYBENZOIC ACID], the results for the Ki in assay [1] and in assay [2] were 98.3 µM and 3.17 µM, respectively.
Turning to `O=C(OC[C@H]1O[C@@H](OC(=O)c2cc(O)c(O)c(OC(=O)c3cc(O)c(O)c(O)c3)c2)[C@H](OC(=O)c2cc(O)c(O)c(OC(=O)c3cc(O)c(O)c(O)c3)c2)[C@@H](OC(=O)c2cc(O)c(O)c(OC(=O)c3cc(O)c(O)c(O)c3)c2)[C@@H]1OC(=O)c1cc(O)c(O)c(OC(=O)c2cc(O)c(O)c(O)c2)c1)c1cc(O)c(O)c(OC(=O)c2cc(O)c(O)c(O)c2)c1` [TANNIC ACID], the Ki in assay [1] amounted to 9.41 µM; in assay [3], 75.9 µM; in assay [2] it was 17.8 µM; in assay [4], 32.8 µM.
`Oc1ccccc1O` [CATECHOL] gave a Ki in assay [1] of 14.8 µM.
`Oc1cccc(O)c1O` [PYROGALLOL]: the Ki was determined as 4.39 µM in assay [1], 7.41 µM in assay [3], 0.52 µM in assay [2] and 0.54 µM in assay [4].
As to `O=C(O)c1ccc(O)cc1` [PARABEN], in assay [1], the affinity corresponds to a Ki of 8.46 µM.
With `O=C(O)c1ccc(O)c(O)c1` [PROTOCATECHUIC ACID], the Ki is 3.21 µM in assay [1] and 4.72 µM in assay [2].
`Oc1cccc(O)c1` [RESORCINOL] showed an inhibitory constant (Ki) in assay [1] of 6.42 µM.
`Oc1ccc(O)cc1` [HYDROQUINONE]: in assay [1], the Ki came to 5.93 µM.

What is called Ki is the equilibrium dissociation constant of an inhibitor or competing ligand from its target. Low values mean tighter binding, high ones weaker binding.
